Patent EP1021178B1, “SELENOPHENE ANTI-TUMOR AGENTS” (Purdue Research Foundation, priority 1996, dated 1997)
Where two headings read alike, the source gives them in different places.

Assays:
[1] = system: MDA-MB-231/ATCC; assay: NCI human tumor cell panel; type: cell-based
[2] = system: NCI-H522; assay: NCI human tumor cell panel; type: cell-based; conditions: NCI-H522, read-out: Log10 LC50 (converted)
[3] = system: RPMI-8226; assay: NCI human tumor cell panel; type: cell-based; conditions: RPMI-8226, read-out: Log10 LC50 (converted)
[4] = system: UACC-257; assay: NCI human tumor cell panel; type: cell-based; conditions: UACC-257, read-out: Log10 LC50 (converted)
[5] = system: NCI-H23; assay: NCI human tumor cell panel; conditions: for CC50: NCI-H23, read-out: Log10 LC50 (converted); for IC (TGI): NCI-H23, read-out: Log10 TGI
[6] = system: COLO 205; assay: NCI human tumor cell panel; conditions: for CC50: COLO 205, read-out: Log10 LC50 (converted)
[7] = system: SNB-19; assay: NCI human tumor cell panel; conditions: for CC50: SNB-19, read-out: Log10 LC50 (converted)
[8] = system: MALME-3M; assay: NCI human tumor cell panel; conditions: for CC50: read-out: Log10 LC50 (converted)
[9] = system: OVCAR-3; assay: NCI human tumor cell panel; conditions: OVCAR-3, read-out: Log10 LC50 (converted)
[10] = system: SK-OV-3; assay: NCI human tumor cell panel; conditions: for CC50: SK-OV-3, read-out: Log10 LC50 (converted)
[11] = system: UO-31; assay: NCI human tumor cell panel; conditions: UO-31, read-out: Log10 LC50 (converted)
[12] = system: CAKI-1; assay: NCI human tumor cell panel; type: cell-based; conditions: CAKI-1, read-out: Log10 LC50 (converted)
[13] = system: RXF-393; assay: NCI human tumor cell panel; type: cell-based; conditions: RXF 393, read-out: Log10 LC50 (converted)
[14] = system: SF-268; assay: NCI human tumor cell panel; type: cell-based; conditions: SF-268, read-out: Log10 LC50 (converted)
[15] = system: NCI-H226; assay: NCI human tumor cell panel; conditions: for CC50: NCI-H226, read-out: Log10 LC50 (converted)
[16] = system: human tumor cell line panels; assay: NCI human tumor cell panel, whole-panel summary (mean graph) and lines without a row head; conditions: for Log10 LC50, Delta / Log10 TGI, Delta / Log10 TGI, Range: whole panel
[17] = system: T-47D; assay: NCI human tumor cell panel; type: cell-based; conditions: T47D, read-out: Log10 LC50 (converted)
[18] = system: HL-60(TB); assay: NCI human tumor cell panel; conditions: for CC50: HL-60, read-out: Log10 LC50 (converted); for IC (TGI): HL-60, read-out: Log10 TGI
[19] = MDA-MB-231, read-out: Log10 LC50, Breast Cancer (converted), MDA-MB-231/ATCC
[20] = Homo sapiens, read-out: Log10 TGI
[21] = Homo sapiens, read-out: Log10 GI50, Delta, Delta, whole panel (converted)
[22] = MDA-MB-231, read-out: Log10 LC50, MDA-MB-231/ATCC (converted)

Row | SMILES | CC50 [1, 19] [µM] | CC50 [2] [µM] | CC50 [3] [µM] | CC50 [4] [µM] | CC50 [5] [µM] | CC50 [6] [µM] | CC50 [7] [µM] | CC50 [8] [µM] | CC50 [9] [µM] | CC50 [10] [µM] | CC50 [11] [µM] | LC50 [12] [µM] | CC50 [13] [µM] | LC50 (concentration killing 50% of cells) [14] [µM] | CC50 [15] [µM] | CC50 [17] [µM] | CC50 [18] [µM] | Log10 LC50, Delta [16] | Log10 TGI, Delta [16] | Log10 TGI, Range [16] | other results
1 | OCc1ccc(-c2ccc(-c3ccc(CO)[se]3)s2)s1 | 97.7 | > 100 | > 100 | 0.24 | > 100 | 61.7 | > 100 | > 100 | 50.1 | 51.3 | > 100 |  |  |  |  |  |  |  |  |  | 
2 | OCc1ccc(-c2ccc(-c3ccc(CO)[se]3)[se]2)[se]1 |  | 7.08 | > 100 | 31.6 | 95.5 | 17.8 | 91.2 | 56.2 | 5.37 |  | 38.9 | 13.2 | 8.71 | 20.9 | 9.12 |  |  |  |  |  | IC (TGI) [16, 20]: 10.5 µM
3 | O=Cc1ccc(-c2ccc(-c3cccs3)[se]2)s1 |  | > 100 | > 100 | 0.309 | > 100 | > 100 | > 100 | > 100 | > 100 | > 100 | > 100 |  | > 100 | > 100 | 1.05 | 91.2 | > 100 | -4.13 | -4.42 | 3.13 | GI50 [16, 21]: 6.76 µM
4 | O=Cc1ccc(-c2ccc(-c3ccc(C=O)s3)[se]2)s1 |  | > 100 | > 100 | 5.75 | > 100 | > 100 | > 100 | > 100 | 4.07 | > 100 |  | > 100 | > 100 | > 100 | 8.51 | > 100 | > 100 | -4.07 | -4.21 | 1.61 | CC50 [1, 22]: > 100 µM; IC (TGI) [18]: > 100 µM; GI50 [16, 21]: 17.8 µM
5 | O=Cc1ccc(-c2ccc(-c3ccc(C=O)[se]3)s2)[se]1 |  | > 100 | > 100 | 6.92 | > 100 | > 100 | > 100 | > 100 | > 100 | > 100 | > 100 | > 100 | > 100 | > 100 | 2.45 | > 100 | > 100 | -4.07 | -4.17 | 2.18 | CC50 [1, 22]: > 100 µM; IC (TGI) [18]: > 100 µM
6 | O=Cc1ccc(-c2ccc(-c3ccc[se]3)[se]2)[se]1 |  | 42.7 | > 100 | 33.1 | 69.2 | 34.7 | 87.1 | 64.6 | 30.9 |  | 53.7 | 14.5 | > 100 | > 100 | 38.9 | 47.9 | > 100 | -4.25 | -4.78 | 1.37 | GI50 [16, 21]: 3.72 µM
7 | O=Cc1ccc(-c2ccc(-c3ccc(C=O)[se]3)[se]2)[se]1 |  | 95.5 | > 100 | > 100 | > 100 | > 100 | > 100 | > 100 | > 100 |  | > 100 | > 100 | > 100 | > 100 | > 100 | > 100 | > 100 | -4.02 | -4.18 | 1.91 | CC50 [1, 22]: > 100 µM; GI50 [16, 21]: 21.4 µM
8 | OCc1ccc(-c2ccc(-c3ccc(CO)s3)[se]2)s1 | > 100 | > 100 | > 100 |  | > 100 | 22.9 | > 100 | > 100 | > 100 | > 100 | > 100 | > 100 | > 100 | > 100 | > 100 | > 100 | > 100 |  |  |  | IC (TGI) ([10]; SK-OV-3, read-out: Log10 TGI): > 100 µM
9 | OCc1ccc(-c2ccc(-c3ccc[se]3)s2)[se]1 | > 100 | 55 | > 100 | 0.457 | 91.2 | 66.1 | > 100 | > 100 | 40.7 | > 100 | > 100 | 64.6 | > 100 | > 100 | 0.525 | > 100 | > 100 |  |  |  | IC (TGI) ([6]; COLO 205, read-out: Log10 TGI): 12.6 µM; IC (TGI) ([8]; read-out: Log10 TGI): > 100 µM
10 | OCc1ccc(-c2ccc(-c3cccs3)[se]2)s1 |  | > 100 | > 100 | 0.0525 | > 100 |  | > 100 | > 100 | > 100 | > 100 | > 100 |  | > 100 | > 100 | 0.224 | > 100 | > 100 |  | 3.46 | 4.00 | CC50 [1, 22]: > 100 µM; GI50 ([16]; Homo sapiens, read-out: Log10 GI50, MG_MID (converted)): 5.25 µM; CC50 ([16]; Homo sapiens, read-out: Log10 LC50, MG_MID (converted)): 61.7 µM; IC (TGI) ([16]; Homo sapiens, read-out: Log10 TGI, MG_MID): 28.8 µM
11 | OCc1ccc(-c2ccc(-c3ccc[se]3)[se]2)[se]1 | > 100 | 23.4 | > 100 |  | 70.8 | > 100 | > 100 | 50.1 | 6.92 |  | > 100 | 51.3 |  | > 100 |  | 44.7 | > 100 |  |  |  | IC (TGI) [5]: 30.9 µM
12 | OCc1ccc(-c2ccc(-c3ccc(CO)[se]3)s2)[se]1 | > 100 |  | > 100 |  | > 100 |  | > 100 | > 100 | > 100 |  | > 100 | > 100 | > 100 | > 100 | > 100 |  | > 100 |  |  |  | 
13 | O=Cc1ccc(-c2ccc(-c3ccc(C=O)[se]3)s2)s1 | > 100 | > 100 | > 100 | > 100 | > 100 | 91.2 | > 100 | > 100 | > 100 | > 100 | > 100 | 29.5 |  |  | > 100 | > 100 |  |  |  |  | IC (TGI) ([15]; NCI-H226, read-out: Log10 TGI): > 100 µM; IC (TGI) [5]: > 100 µM; IC (TGI) ([7]; SNB-19, read-out: Log10 TGI): > 100 µM; IC (TGI) [16, 20]: 44.7 µM
